What was measured:
[1] = system: sweet sensitive panelists; test: Ranking test, near threshold sweetness isointensity of enhancer in water (Example 3b); format: in vivo
Description: The sensory evaluation was conducted using a ranking method. Samples at ambient temperature were randomly presented in 15 ml blind aliquots (unidentifiable by panelists). […] After tasting each sample, the mouth was rinsed thoroughly with water at ambient temperature prior to tasting the next sample. […] They were asked to rank the samples from low to high with respect to perceived sweet taste.

[2] = system: sucrose sweetness; conditions: at its sweetness detection threshold; Kroeze et al., Chem. Senses 2000; cited from earlier work
[3] = system: sweet sensitive panelists; test: Forced choice test of sweetness enhancers with sweetness rating (Example 2); format: in vivo; conditions: scale 0-10
Description: A forced choice test of sweetness enhancers in water, 2% sucrose and 7% sucrose
All sweetness enhancer samples were evaluated at the same concentration, which was selected close to the threshold of each sweetness enhancer, in 0% sucrose (water), 2% sucrose, and 7% sucrose.
The test samples were evaluated by a sensory panel of 10 sweet sensitive panelists. Samples were presented in 3 replicates to each panelist to give n=30 evaluations for each panel. The sensory evaluation was conducted using a forced choice method. Samples were presented blind, unidentifiable by panelists. Three runs at different sucrose concentrations were performed (0% sucrose (water/negative control), 2% sucrose, 7% sucrose). In each run, the sweetness enhancer sample was compared by panelists to a corresponding sample without sweetness enhancer at the same sucrose concentration. Panelists were instructed that they had to choose one of the samples as sweeter. The data was analyzed using beta-binomial analysis. […]
Alternatively, 0% (water), 0.5% and/or 1% and/or 1.5% sucrose were used for samples/corresponding controls and evaluated accordingly.
As a further control, the sweetness enhancer in water was compared to 0.5% and/or 1% and/or 1.5% sucrose. The result determined the sweetness intensity of the sweetness enhancer compound as such, without the sweetness due to the enhancement of sucrose.

Compound	isointensity to sucrose solution ([1]; 2 ppm in water) [% sucrose]	NDHC sample sweetness ([1]; 2 ppm in water vs 0.5% sucrose)	NDHC sample sweetness ([1]; 2 ppm in water vs 1% sucrose)	enhancement of sucrose sweetness [2]	rating 1% sucrose ([3]; rating 2 of Example 12B)	rating 1% sucrose ([3]; rating 2 of Example 12C)
COc1ccc(CCC(=O)c2c(O)cc(O[C@@H]3O[C@H](CO)[C@@H](O)[C@H](O)[C@H]3O[C@@H]3O[C@@H](C)[C@H](O)[C@@H](O)[C@H]3O)cc2O)cc1O [NDHC, Neohesperidin dihydrochalcone]	0.5	isosweet	less sweet	does not enhance sucrose sweetness		
OC[C@H]1O[C@@](CO)(O[C@H]2O[C@H](CO)[C@@H](O)[C@H](O)[C@H]2O)[C@@H](O)[C@@H]1O [sucrose, α-D-glucopyranosyl-(1→2)-β-D-fructofuranose]					0.81 ± 0.08	0.72 ± 0.06

Source: patent US20210015134A1, “CONSUMABLES” (Givaudan S.A., priority 2006, published 2021)
